The values below come from patent US8765972B2 (priority 2009, dated 2014).

Molecules are shown by their SMILES. Where two headings read alike, the source gives them in different places. Some results are limits rather than exact numbers.

One data set addresses PARP-2 (Homo sapiens (Human), UniProt Q9UGN5). The note with it: read-out: PARP-2 (DC50); probe compound P1.
The target in a further data set is PARP-3 (Homo sapiens (Human), UniProt Q9Y6F1). Particulars: read-out: PARP-3 (DC50); probe compound P1.
For data set [1], the target named is T1, PARP-1 (Homo sapiens (Human), UniProt P09874). Particulars: for DC50: read-out: PARP-1 (DC50); for Kd: read-out: PARP-1 (Kd).
Method: (§1) Affinity evaluation of the tested compounds and their selectivity with respect to the different PARP isoforms of interest was assessed in a displacement assay.
(§2) The polarization signal can be measured, e.g., by a plate reader such as the Saphire2 (Tecan). The displacement ability of the test compound is in correlation with the compound affinity for the NAD pocket of the enzyme.
(§3) In all of the experiments, the polarization signal was measured using a Saphire2 plate reader (Tecan). Data analysis was performed using Dynafit software. In particular, titration data were fitted to the following equilibria: Enzyme+probe<==>Complex Enzyme-probe, while displacement data were fitted to the following equilibria: Enzyme+probe<==>Complex Enzyme-probe, Enzyme+Compound<==>Complex Enzyme-Compound, whereby binding of probe and compound on the enzyme are mutually exclusive (pure competitive mechanism). Displacement data were also fitted using Excell spreadsheet (Microsoft Inc. Seattle, USA) to a four parameter logistic model (4PL), or Hill-Slope model to calculate DC50s where the DC50 value represents the compound concentration at which the polarization signal is diminished by 50% compared to untreated controls.
(§4) In agreement, affinity binding constants (KD) were determined by fitting with a pure competitive mechanism. KD values, are the average of three independent experiments.
The conditions of data set [2]: male, Balb, Nu/Nu, mouse, in vivo, 10 mg/kg.
Method: The compounds were formulated in 10% tween 80/dextrose for intravenous bolus administration while oral administrations were performed using the compounds formulated in 0.5% methylcellulose. […] Plasma samples were prepared by plasma proteins precipitation adding 200 μL of methanol to 10 μL of plasma in a 96 well plate. […] The supernatant was considered as final extract and injected onto the LC-MS-MS system (HPLC system: Hewlett Packard 1100 series using Atlantis HILIC Silica 50*2.1 mm 5.0 μm analytical column; MS instrument: Perkin Elmer SCIEX API 2000 and ionization performed with Turbo Ion Spray in positive ion mode). Lower limit of quantification is 5.0 ng/mL, upper limit of quantification is 10000 ng/mL. Analysis was performed using the Watson package (version 6.4.0.04) and Excel spreadsheet (Microsoft Inc. Seattle, USA). Non-compartmental method (linear trapezoidal rule and linear regression analysis of natural log-transformed plasma concentrations vs. time data) was used. After intravenous dosing, Co was set equal to Co 083 Absolute bioavailability (F) was calculated from the ratio of average oral to IV (intravenous) dose-normalized plasma AUC (area under curve) values.
Data set [3] concerns PAR formation in HeLa cells. Put plainly: cells. The note with it: Homo sapiens, read-out: PAR assay (IC50).
Method: Cellular PAR levels were measured by immunocytochemistry, and quantified using an ArrayScan vTi instrument (Cellomics Thermo Scientific). […] Test compounds were then added at the required concentration for 30'. […] After 3 washes in PBS, wells incubated in PBS (w/v) 5% FBS 0.05% Tween20 containing 2 μg/mL Cy2-conjugated Goat anti mouse secondary antibody (Amersham Pharmacia Biotech cat. […] At least 10 fields, corresponding to at least 900 cells, were read for each well. […] X is the logarithm of concentration. IC50 is the response; IC50 starts at Bottom and goes to Top with a sigmoid shape.
Another data set can be described thus: in vivo. Particulars: male, Balb, Nu/Nu, mouse, 10 mg/kg; for Vd / clearance: iv; for AUC(0-t) / half-life: po.
Data set [4] addresses T1, PARP-1. Kind of data set: biochemical. The note with it: PARP-1 (Kd), probe compound P3.
Method: as §1, §2, §3, §4
The test system of data set [5] is Capan-1 human pancreatic cancer tumors. Put plainly: In vivo efficacy, Capan-1 BRCA-2 mutated mouse model, single agent. Further details: species or system Balb, athymic Nu/Nu male mice. The note with it: oral, 100 mg/kg, schedule 1-20 daily.
From the text: (§5) Balb, athymic Nu/Nu male mice, from Harlan (Italy), were maintained in agreement with the European Communities Council Directive no. 86/609/EEC concerning the protection of animals used for experimental or other scientific purposes, in cages with paper filter cover, food and bedding sterilized and acidified water. Fragments of Capan-1 human pancreatic cancer tumors were implanted subcutaneously. […] Each group included seven animals. The treatment started one day after randomization. Compound of formula (I) was administered by oral route as a methocel suspension at the indicated doses and times. Tumor dimension was measured regularly by calipers during the experiments and tumor mass was calculated as described in Simeoni M. et al., Cancer Res 64, 1094-1101 (2004).
For data set [6] the following is noted: male, Balb, athymic Nu/Nu, mouse, in vivo, po, 100 mg/kg.
From the text: as §5

The term Kd denotes the free concentration of one partner at which half of the binding sites on the other are occupied at equilibrium, for simple one-to-one binding. In general, IC50 refers to the concentration that inhibits the measured activity by half. Usually Vd stands for a proportionality between amount in the body and measured concentration, not a real space. A high value points to extensive tissue distribution. What is called clearance is a measure of how efficiently the substance is removed, as volume per time. Low readings indicate inefficient removal, high ones efficient removal. Broadly, the AUC(0-t) is the area under the concentration-time curve up to a stated or last time point. For orientation: half-life means how long it takes for the measured level to halve. A low value points to rapid decline.

PARP-2, sequence (Q9UGN5 whole entry): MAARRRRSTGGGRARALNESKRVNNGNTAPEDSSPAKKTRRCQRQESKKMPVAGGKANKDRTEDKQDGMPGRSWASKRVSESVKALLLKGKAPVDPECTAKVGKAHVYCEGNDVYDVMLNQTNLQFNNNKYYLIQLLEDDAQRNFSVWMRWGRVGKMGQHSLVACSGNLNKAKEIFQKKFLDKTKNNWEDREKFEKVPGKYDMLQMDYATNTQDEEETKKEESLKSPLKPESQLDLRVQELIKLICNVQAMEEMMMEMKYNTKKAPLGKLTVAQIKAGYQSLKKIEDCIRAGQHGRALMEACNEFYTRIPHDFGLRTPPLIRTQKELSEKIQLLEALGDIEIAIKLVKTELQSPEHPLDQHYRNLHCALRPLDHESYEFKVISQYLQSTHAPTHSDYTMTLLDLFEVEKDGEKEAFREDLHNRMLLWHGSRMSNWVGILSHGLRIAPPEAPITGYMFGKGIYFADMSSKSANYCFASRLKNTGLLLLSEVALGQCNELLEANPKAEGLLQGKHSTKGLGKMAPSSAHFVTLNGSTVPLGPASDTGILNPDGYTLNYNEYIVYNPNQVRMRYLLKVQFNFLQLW
PARP-3, sequence (Q9Y6F1 whole entry): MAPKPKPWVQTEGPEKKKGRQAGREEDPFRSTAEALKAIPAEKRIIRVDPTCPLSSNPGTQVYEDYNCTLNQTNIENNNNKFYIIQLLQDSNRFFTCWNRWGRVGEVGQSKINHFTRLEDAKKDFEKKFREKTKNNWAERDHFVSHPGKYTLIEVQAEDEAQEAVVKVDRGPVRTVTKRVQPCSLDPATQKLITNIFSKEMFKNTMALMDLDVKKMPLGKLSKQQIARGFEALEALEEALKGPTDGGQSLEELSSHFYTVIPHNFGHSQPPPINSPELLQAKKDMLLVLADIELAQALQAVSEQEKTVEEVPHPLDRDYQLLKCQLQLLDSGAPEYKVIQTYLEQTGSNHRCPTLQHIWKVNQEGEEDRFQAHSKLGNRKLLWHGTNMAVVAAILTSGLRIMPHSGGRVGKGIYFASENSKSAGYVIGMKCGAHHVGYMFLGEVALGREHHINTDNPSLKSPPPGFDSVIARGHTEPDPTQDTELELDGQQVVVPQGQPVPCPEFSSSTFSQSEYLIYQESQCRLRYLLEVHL
T1 sequence (P09874 whole entry): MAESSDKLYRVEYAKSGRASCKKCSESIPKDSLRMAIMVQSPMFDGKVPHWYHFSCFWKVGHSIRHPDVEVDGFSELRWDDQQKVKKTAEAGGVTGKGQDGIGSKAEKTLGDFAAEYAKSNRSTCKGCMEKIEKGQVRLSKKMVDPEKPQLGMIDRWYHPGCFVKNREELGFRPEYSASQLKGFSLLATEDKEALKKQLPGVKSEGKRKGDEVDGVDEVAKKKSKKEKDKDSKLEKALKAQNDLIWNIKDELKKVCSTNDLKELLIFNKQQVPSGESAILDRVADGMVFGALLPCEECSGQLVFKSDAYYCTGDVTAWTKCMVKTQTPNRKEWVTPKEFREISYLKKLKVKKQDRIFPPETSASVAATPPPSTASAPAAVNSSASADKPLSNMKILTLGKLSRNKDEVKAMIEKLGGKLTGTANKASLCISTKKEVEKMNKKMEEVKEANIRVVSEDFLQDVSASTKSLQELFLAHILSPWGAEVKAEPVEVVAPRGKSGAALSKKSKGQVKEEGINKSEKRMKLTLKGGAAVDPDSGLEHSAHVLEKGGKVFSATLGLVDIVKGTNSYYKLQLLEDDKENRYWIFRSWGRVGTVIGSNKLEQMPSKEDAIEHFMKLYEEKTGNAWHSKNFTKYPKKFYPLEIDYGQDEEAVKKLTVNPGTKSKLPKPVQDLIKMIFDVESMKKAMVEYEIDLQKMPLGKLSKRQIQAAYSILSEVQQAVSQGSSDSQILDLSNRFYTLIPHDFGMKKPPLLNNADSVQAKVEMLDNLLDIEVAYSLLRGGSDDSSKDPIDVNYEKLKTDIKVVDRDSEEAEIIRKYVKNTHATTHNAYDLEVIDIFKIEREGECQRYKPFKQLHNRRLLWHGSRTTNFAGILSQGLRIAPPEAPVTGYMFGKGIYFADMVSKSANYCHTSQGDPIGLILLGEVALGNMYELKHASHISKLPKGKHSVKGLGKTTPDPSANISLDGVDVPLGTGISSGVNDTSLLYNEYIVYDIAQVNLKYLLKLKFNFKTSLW
Method for PARP-2: as §1, §2, §3, §4
Method for PARP-3: as §1, §2, §3, §4

With `CC1c2cccc(C(N)=O)c2C(=O)N1C1CCN(CC2CC=CCC2)CC1` (centres unmarked) [Compound 22, 2-[1-(Cyclohex-3-en-1-ylmethyl)piperidin-4-yl]-1-methyl-3-oxo-2,3-dihydro-1H-isoindole-4-carboxamide], the DC50 is above 10 µM on PARP-2, above 10 µM on PARP-3 and below 0.25 µM at PARP-1 [1] (probe compound P1). Also, the Kd on PARP-1 [1] (probe compound P3) was found to be 0.04 µM.
As to `CC1c2cccc(C(N)=O)c2C(=O)N1C1CCN(C2CCC2)CC1` (centres unmarked) [Compound 18, 2-(1-Cyclobutylpiperidin-4-yl)-1-methyl-3-oxo-2,3-dihydro-1H-isoindole-4-carboxamide], on PARP-2, the DC50 is 1.82 µM. Further, in [2], the “C-max (oral)” value is 3.9 µM. In addition, in data set [3], the half-inhibitory concentration (IC50) stood at 2.7 µM. Moreover, the DC50 on PARP-3 is above 10 µM. For the same compound, at PARP-1 [1] (probe compound P1), the DC50 was below 0.25 µM. In the data set “in vivo”, this compound showed a Vd of 3.84 L/kg, a clearance of 47 mL/min/kg, an AUC(0-t) of 7.28 µM·h and a half-life of 1.8 h. The compound also returned a dissociation constant (Kd) at PARP-1 [4] below 0.01 µM.
Regarding `CC1c2cccc(C(N)=O)c2C(=O)N1C1CCN(CC2CCCCC2)CC1` (centres unmarked) [Compound 21, 2-[1-(Cyclohexylmethyl)piperidin-4-yl]-1-methyl-3-oxo-2,3-dihydro-1H-isoindole-4-carboxamide], the DC50 on PARP-2 was above 10 µM. The “C-max (oral)” value in data set [2] came to 1.2 µM. The IC50 in data set [3] was 1.2 µM. The DC50 at PARP-3 is above 10 µM. In addition, the “Max TGI (%)” value in data set [5] stood at 23%. For the same compound, in the data set “in vivo”, the Vd turned out to be 4.9 L/kg, the clearance was found to be 23 mL/min/kg, the exposure AUC(0-t) was 7.39 µM·h and the half-life was 6.6 h. In addition, the “Toxicity (body weight reduction, mice affected out of 7 treated)” value in data set [6] is on record as 0/7.
For `CC1c2cccc(C(N)=O)c2C(=O)N1C1CCN(Cc2ccccn2)CC1` (centres unmarked) [Compound 9, 1-Methyl-3-oxo-2-[1-(pyridin-2-ylmethyl)piperidin-4-yl]-2,3-dihydro-1H-isoindole-4-carboxamide], the DC50 at PARP-2 was above 10 µM; at PARP-3 it was above 10 µM; on PARP-1 [1] (probe compound P1), 0.35 µM. For the same compound, the half-inhibitory concentration (IC50) in data set [3] was determined as 3 µM. Further, on PARP-1 [1] (probe compound P3), the Kd came out at 0.17 µM.
For the compound `CC1c2cccc(C(N)=O)c2C(=O)N1C1CCN(Cc2ccco2)CC1` (centres unmarked) [Compound 15, 2-[1-(Furan-2-ylmethyl)piperidin-4-yl]-1-methyl-3-oxo-2,3-dihydro-1H-isoindole-4-carboxamide], the results for the DC50 at PARP-2, at PARP-3 and at PARP-1 [1] (probe compound P1) were above 10 µM, above 10 µM and below 0.25 µM, respectively. The Kd on PARP-1 [1] (probe compound P3) was determined as 0.04 µM.
On to `CC1c2cccc(C(N)=O)c2C(=O)N1C1CCN(C2CCCC2)CC1` (centres unmarked) [Compound 13, 2-(1-Cyclopentylpiperidin-4-yl)-1-methyl-3-oxo-2,3-dihydro-1H-isoindole-4-carboxamide], for which, on PARP-2, the DC50 came out at 1.46 µM. In addition, the “C-max (oral)” value in data set [2] was determined as 3.64 µM. In addition, the IC50 in data set [3] turned out to be 0.5 µM. In addition, the DC50 on PARP-3 was above 10 µM. In addition, the “Max TGI (%)” value in data set [5] was 18%. Also, at PARP-1 [1] (probe compound P1), the DC50 is below 0.25 µM. The Kd at PARP-1 [1] (probe compound P3) turned out to be 0.05 µM. Further, in “in vivo”, the Vd amounted to 4.7 L/kg, the clearance came out at 26.7 mL/min/kg, the AUC(0-t) was determined as 18.3 µM·h and the half-life was 2.9 h. Besides, the “Toxicity (body weight reduction, mice affected out of 7 treated)” value in data set [6] is 0/7.
In the case of `C[C@@H]1c2cccc(C(N)=O)c2C(=O)N1C1CCN(C2CCCCC2)CC1` [Compound 5, (1R)-2-(1-Cyclohexylpiperidin-4-yl)-1-methyl-3-oxo-2,3-dihydro-1H-isoindole-4-carboxamide], the DC50 is above 10 µM on PARP-2, above 10 µM at PARP-3 and 2.11 µM on PARP-1 [1]. Also, in data set [3], the IC50 is 6.3 µM. Further, the Kd at PARP-1 [1] stood at 0.78 µM.
On to `CC1c2cccc(C(N)=O)c2C(=O)N1c1ccc(N2CCCCC2)cc1` (centres unmarked) [Compound 36, 1-Methyl-3-oxo-2-[4-(piperidin-1-yl)phenyl]-2,3-dihydro-1H-isoindole-4-carboxamide], for which the results for the DC50 at PARP-2, on PARP-3 and at PARP-1 [1] (probe compound P1) were above 10 µM, above 10 µM and below 0.25 µM, respectively. The IC50 in [3] was found to be 9 µM. Further, the Kd on PARP-1 [1] (probe compound P3) was found to be 0.08 µM.
Consider `CC1(C)c2cc(F)cc(C(N)=O)c2C(=O)N1C1CCN(C2CCCCC2)CC1` [Compound 128, 2-(1-Cyclohexylpiperidin-4-yl)-6-fluoro-1,1-dimethyl-3-oxo-2,3-dihydro-1H-isoindole-4-carboxamide], for which the DC50 on PARP-2 was above 10 µM; on PARP-3, above 10 µM; on PARP-1 [1] (probe compound P1) it was 5.66 µM. Besides, in [3], the IC50 was 4 µM. At PARP-1 [1] (probe compound P3), the Kd was found to be 0.87 µM.
For the compound `CC1c2cccc(C(N)=O)c2C(=O)N1C1CCN(Cc2ncc[nH]2)CC1` (centres unmarked) [Compound 26, 2-[1-(1H-Imidazol-2-ylmethyl)piperidin-4-yl]-1-methyl-3-oxo-2,3-dihydro-1H-isoindole-4-carboxamide], the DC50 was 6.88 µM on PARP-2, 2.83 µM on PARP-3 and below 0.25 µM at PARP-1 [1] (probe compound P1). Further, the Kd at PARP-1 [1] (probe compound P3) was 0.07 µM.
On to `CC1c2cccc(C(N)=O)c2C(=O)N1C1CCN(C2CCC(F)(F)CC2)CC1` (centres unmarked) [Compound 6, 2-[1-(4,4-Difluorocyclohexyl)piperidin-4-yl]-1-methyl-3-oxo-2,3-dihydro-1H-isoindole-4-carboxamide], for which the DC50 was above 10 µM on PARP-2, above 10 µM at PARP-3 and below 0.25 µM on PARP-1 [1] (probe compound P1). Also, the IC50 in [3] was 1.3 µM. Also, the Kd at PARP-1 [1] (probe compound P3) was 0.03 µM.
As for `CC1c2cc(F)cc(C(N)=O)c2C(=O)N1C1CCN(C2CCC(F)(F)CC2)CC1` (centres unmarked) [Compound 126, 2-[1-(4,4-Difluorocyclohexyl)piperidin-4-yl]-6-fluoro-1-methyl-3-oxo-2,3-dihydro-1H-isoindole-4-carboxamide], the DC50 on PARP-2 is above 10 µM; on PARP-3, above 10 µM; on PARP-1 [1] (probe compound P1) it was below 0.25 µM. Also, the IC50 in [3] stood at 0.27 µM.
Consider `CC1c2cccc(C(N)=O)c2C(=O)N1C1CCN(Cc2cn(C(C)C)c3ccccc23)CC1` (centres unmarked) [Compound 8, 1-Methyl-3-oxo-2-(1-{[1-(propan-2-yl)-1H-indol-3-yl]methyl}piperidin-4-yl)-2,3-dihydro-1H-isoindole-4-carboxamide], for which the DC50 on PARP-2 was above 10 µM; at PARP-3 it was 3.1 µM; at PARP-1 [1] (probe compound P1), 0.44 µM. In addition, the Kd at PARP-1 [1] (probe compound P3) was 0.25 µM.
Take `CC1c2cccc(C(N)=O)c2C(=O)N1c1ccc(CN2CCCCC2)cc1` (centres unmarked) [Compound 38, 1-Methyl-3-oxo-2-[4-(piperidin-1-ylmethyl)phenyl]-2,3-dihydro-1H-isoindole-4-carboxamide]: the DC50 was above 10 µM on PARP-2, above 10 µM on PARP-3 and 1.11 µM at PARP-1 [1] (probe compound P1). Also, the IC50 in [3] was determined as 5.3 µM.
With `CC1c2cccc(C(N)=O)c2C(=O)N1C1CCN(Cc2cccs2)CC1` (centres unmarked) [Compound 20, 1-Methyl-3-oxo-2-[1-(thiophen-2-ylmethyl)piperidin-4-yl]-2,3-dihydro-1H-isoindole-4-carboxamide], the DC50 on PARP-2 was above 10 µM; at PARP-3, 3.86 µM; at PARP-1 [1] (probe compound P1), below 0.25 µM. The compound also registered a Kd on PARP-1 [4] below 0.01 µM.
On to `CC1c2cc(F)cc(C(N)=O)c2C(=O)N1C1CCN(C2CCCCC2)CC1` (centres unmarked) [Compound 127, 2-(1-Cyclohexylpiperidin-4-yl)-6-fluoro-1-methyl-3-oxo-2,3-dihydro-1H-isoindole-4-carboxamide], for which the DC50 at PARP-2 is above 10 µM; on PARP-3, above 10 µM; on PARP-1 [1] (probe compound P1), 0.41 µM. Moreover, the half-inhibitory concentration (IC50) in [3] was determined as 0.64 µM. Also, the Kd on PARP-1 [1] (probe compound P3) came to 0.06 µM.
`CC1c2cccc(C(N)=O)c2C(=O)N1c1ccc(N2CCOCC2)cc1` (centres unmarked) [Compound 35, 1-Methyl-2-[4-(morpholin-4-yl)phenyl]-3-oxo-2,3-dihydro-1H-isoindole-4-carboxamide]: the DC50 at PARP-2 was above 10 µM; at PARP-3, above 10 µM; on PARP-1 [1] (probe compound P1) it was below 0.25 µM. The IC50 in data set [3] is 4.9 µM. For the same compound, the Kd at PARP-1 [1] (probe compound P3) is 0.04 µM.
As to `CC1c2cccc(C(N)=O)c2C(=O)N1C1CCN(Cc2ccc3[nH]ccc3c2)CC1` (centres unmarked) [Compound 7, 2-[1-(1H-indol-5-ylmethyl)piperidin-4-yl]-1-methyl-3-oxo-2,3-dihydro-1H-isoindole-4-carboxamide], the DC50 at PARP-2 was above 10 µM; on PARP-3, 0.52 µM; at PARP-1 [1] (probe compound P1), below 0.25 µM. The IC50 in data set [3] came to 7 µM. The Kd on PARP-1 [1] (probe compound P3) amounted to 0.03 µM.
Regarding `CC1c2cccc(C(N)=O)c2C(=O)N1C1CCN(Cc2ccc[nH]2)CC1` (centres unmarked) [Compound 19, 1-Methyl-3-oxo-2-[1-(1H-pyrrol-2-ylmethyl)piperidin-4-yl]-2,3-dihydro-1H-isoindole-4-carboxamide], the DC50 at PARP-2 is above 10 µM. In addition, the “C-max (oral)” value in [2] was 2.85 µM. The IC50 in [3] came to 2.5 µM. Further, the DC50 at PARP-3 came out at 3.04 µM. Moreover, at PARP-1 [1] (probe compound P1), the DC50 was below 0.25 µM. Further, the dissociation constant Kd at PARP-1 [1] (probe compound P3) was found to be 0.02 µM. Moreover, in the data set “in vivo”, the Vd was 3.9 L/kg, the clearance amounted to 88 mL/min/kg, the AUC(0-t) turned out to be 4.28 µM·h and the half-life is 0.8 h.
